# Measured values: patent US9452177B2, “Vitamin D compounds and methods for reducing ocular hypertension (OHT)” (Wisconsin Alumni Research Foundation, priority 2008, dated 2016)
# “Also recorded” adds a separate entry of the source.
# Columns and labels:
# [1] = system: eyes of ocular normotensive cynomolgus monkeys; assay: Intraocular pressure (IOP) by Goldmann applanation tonometry after 5 twice-daily unilateral topical treatments; type: in vivo, cynomolgus monkeys (Macaca fascicularis); conditions: for IOP less than at baseline prior to the 5th treatment: one eye, both treated and control eye; for IOP decrease prior to the fifth treatment on day 3: both eyes
# Description: Ocular normotensive adult cynomolgus monkeys (Macaca fascicularis), of either sex, weighing 3-7 kg were anesthetized with i.m. ketamine HCl (3-25 mg/kg, supplemented with 1-10 mg/kg) for IOP and topical drop administration. All monkeys were free of any ocular abnormalities according to slit lamp biomicroscopy at the time measurements were taken. The monkeys were provided by the Primate Center at the University of Wisconsin-Madison. All experiments were done in accordance with the ARVO Statement on the Use of Animals in Ophthalmic and Vision Research.
# The intraocular pressure (IOP) was determined with a “minified” Goldmann applanation tonometer [Kaufman, 1980] using HALF AND HALF™ creamer solution (Borden) as the tear film indicator [Croft, 1997] with the monkey lying prone in a head holder and the eyes positioned 4 to 8 cm above the heart. All monkeys were examined by slit-lamp before the first IOP measurement in each protocol. For each eye, two or three IOP measurements were averaged as a baseline.
# (§1) Under ketamine anesthesia (KETAJECT™, Phoenix Pharmaceutical, St Joseph, Mo. (3-25 mg/kg i.m., supplemented with 1-10 mg/kg i.m. as needed) baseline IOP was determined, usually between 7:30 and 9 am (2 readings, 5 minutes apart; if IOP baseline measurements were not within 2-3 mm Hg of each other, a 3rd reading was taken 5 min later). Baseline IOP was at least 15 mmHg if possible. A baseline blood sample was taken from the femoral artery or vein, or sometimes the brachial vein (1-2 ml). This was allowed to clot and then spun down (3000 rpm for 10 min, Damon/IEC NH-SII centrifuge) and the serum removed and frozen at −20 C for no more than 1 week. Baseline systolic, diastolic and mean arterial pressure as well as heart rate were recorded with the Dinamap monitor from a cuff placed around the arm or the leg.
# After baseline measurements, the monkey was place supine with the eye pointing up and the eyelid held open. A 5 μl drop of test material or vehicle was delivered to opposite eyes. The eyelid was held open for at least 30 sec and the eye was maintained in the upward position for an additional 30 sec. The monkey was then returned to its cage and allowed to wake up. In the afternoon, at least 6 hours after the morning treatment, another treatment was administered. On the second day, dosing was repeated in the am and pm.
# On the 3th day, prior to the 5th treatment, baseline IOP, biomicroscopy and MAP were determined. Preliminary studies indicated an effect was observed after these treatments but not after a single treatment. Following the 5th dose, IOP was measured at 1, 2, 3, 4, 5, 6, 7, 8, 12 (if possible), 24, and sometimes 48 hr. Biomicroscopy was done at 1, 3, 6, 24 and sometimes 48 hr. MAP on day 3 (some protocols) was determined at 1, 2, 3, 4, 5, 6, 7, 8, 24 and sometimes 48 hr if possible. Blood samples after the 5th treatment were collected at 6, 24, and sometimes 48 hr. For some protocols, IOP was also measured prior to each treatment; MAP was measured prior to the morning treatment; blood was collected prior to the afternoon treatment. Subsequent screening protocols will not include the MAP and blood collections and will only measure IOP at baseline and prior to and for 1-6 hr after the 5th treatment.
# Adult cynomolgus monkeys (Macaca fascicularis) of either sex were anesthetized with intramuscular ketamine HCl (10 mg/kg initial, 5 mg/kg supplemental). Baseline pretreatment IOP was determined by Goldmann applanation tonometry [Kaufman, 1980] with […] used as a tear film indicator [Croft, 1997]. Two baseline IOP measurements were taken 5 minutes apart. […]
# [2] = Serum Ca2+ level after ocular topical applications; type: in vivo, cynomolgus monkeys (Macaca fascicularis); conditions: 5 μg, 3 days, total 5 unilateral topical applications
# Description: as §1
# On the 3th day, prior to the 5th treatment, baseline IOP, biomicroscopy and MAP were determined. […] Following the 5th dose, IOP was measured at 1, 2, 3, 4, 5, 6, 7, 8, 12 (if possible), 24, and sometimes 48 hr. […] MAP on day 3 (some protocols) was determined at 1, 2, 3, 4, 5, 6, 7, 8, 24 and sometimes 48 hr if possible. […] For some protocols, IOP was also measured prior to each treatment; MAP was measured prior to the morning treatment; blood was collected prior to the afternoon treatment. […]
# [3] = system: eyes of cynomolgus monkeys; assay: Aqueous humor formation rate by ocular scanning fluorophotometry; type: in vivo; conditions: for AHF Rx/Baseline, Vitamin D eye / AHF Rx/Baseline, Vitamin D/Vehicle / AHF ratio Vitamin D/Vehicle after treatment / Aqueous humor formation (AHF), Vitamin D eye after treatment: 5 μg
# Description: Ocular normotensive adult cynomolgus monkeys, of either sex, weighing 3-7 kg were anesthetized with i.m. ketamine HCl (3-25 mg/kg, supplemented with 1-10 mg/kg) for IOP, topical drop administration and aqueous humor flow measurements. All monkeys were free of any ocular abnormalities according to slit lamp biomicroscopy at the time measurements were taken. For outflow facility measurements, animals were given intravenous sodium pentobarbital (15 mg/kg, supplemented with 5-10 mg/kg) following i.m. ketamine induction.
# Aqueous humor formation rate was determined by ocular scanning fluorophotometry (Fluorotron Master, OcuMetrics Inc, Mountain View, Calif.) as previously described [Rasmussen, 2007]. Fluorescein drops were administered at least 30 minutes after the fourth treatment (see above) with vitamin D or vehicle. On day 3, prior to the fifth treatment, IOP and biomicroscopy were done. Following the fifth treatment scans were taken hourly, beginning 1 hour after treatment, until 6 duplicates scans were collected. Baseline scans were collected for 6 hours within 2 weeks before and at least 2 weeks after the treatment study. Post treatment aqueous humor formation rates were compared to the average of the pre and post baseline scans and to the vehicle treated eyes by the paired t-test for ratios different from 1.0. There were 8 monkeys for each treatment group.
# Aqueous humor formation was measured by fluorophotometry during the interval 1-6 hr after the 5th topical bid treatment with vitamin D or vehicle to opposite eyes (see Materials and Methods). Units for aqueous humor formation are μl/min. Data are Mean±Sem. Rx, treatment (Vitamin D or vehicle) n=6.
# [4] = Example 3, 5 μg unilateral topical
# [5] = Hours 1-3 after 5th topical bid treatment
# [6] = Hours 1-6 after 5th topical bid treatment
# [7] = Hours 4-6 after 5th topical bid treatment
structure (smiles),measurement,setting,value
"C=C1/C(=C\C=C2/CCC[C@]3(C)[C@@H]([C@H](C)CCCC(C)(C)O)CC[C@@H]23)C[C@@H](O)C[C@@H]1O [1,25-(OH)2D3, 1α,25-dihydroxyvitamin D3]",IOP in treated eye compared with control eye,"[1]; Example 1, 5 μg (2MD 6 μg) in 5 μl propylene glycol one eye, vehicle opposite eye","consistently, but not significantly less than in the control eye"
same,IOP less than at baseline prior to the 5th treatment,"[1]; Example 1, 5 μg in 5 μl propylene glycol twice daily, n=8",3-4 mmHg
same,IOP less than at baseline prior to the 5th treatment,"[1]; Example 1, 5 μg twice daily, n=8, p<0.05",~17%
same,time of gradual recovery of IOP toward baseline,"[1]; Example 1, 5 μg, after 5th treatment",24 to 48 h
same,additional IOP decrease after the 5th treatment,"[1]; Example 1, 5 μg, hr 1-4 after 5th dose",1-2 mmHg
same,total IOP reduction after the 5th treatment,"[1]; Example 1, 5 μg, hr 1-4 after 5th dose, p<0.02",20-30%
same,"strongest response, IOP decrease","[1]; Example 1, 5 uniocular topical treatments",up to 40%
same,rank order of ocular hypotensive effect,"[1]; Example 1, 5 uniocular topical treatments at the same dose","1,25(OH)2D3>2MD>AGR"
same,effect on IOP,"[1]; Example 3, 0.1 μg unilateral topical, either eye",did not have any significant effect on IOP in either eyes
same,IOP reduction in control versus treated eyes,"[1]; Example 3, 1 μg",stronger IOP reduction in the fellow control eyes than in the treated eyes
same,IOP reduction (bilateral),"[1]; Example 3, 1 μg unilateral topical",20%
same,IOP difference between treated and control eyes,"[1]; Example 3, 5 μg",no significant differences between the two eyes except for the time period of 12 h or longer
same,"IOP reduction, control eyes","[1]; Example 3, 5 μg in opposite eye",27%
same,"IOP reduction, treated eye",[1]; [4],30%
same,IOP decrease prior to the fifth treatment on day 3,[1]; [4],~3 mmHg
same,IOP decrease prior to the fifth treatment on day 3,"[1]; Example 3, 5 μg unilateral topical, p<0.05",approximately 20%
same,time of return of IOP to near pretreatment baseline,"[1]; Example 3, 5 μg, after fifth treatment",48 h
same,duration of IOP-lowering effect,"[1]; topical application, nonhuman primates",more than 12 hours
same,blood serum calcium levels,[2],did not change
same,change in aqueous humor formation rate,"[3]; 5 μg topical, compared to baseline or vehicle eye",no changes in the aqueous humor formation rates; also recorded: does not change the aqueous humor formation
same,"AHF Rx/Baseline, Vitamin D eye",[3]; [5],1.06 ± 0.10
same,"AHF Rx/Baseline, Vitamin D/Vehicle",[3]; [5],1.07 ± 0.06
same,AHF ratio Vitamin D/Vehicle after treatment,[3]; [5],0.94 ± 0.05
same,"Aqueous humor formation (AHF), Vitamin D eye after treatment",[3]; [5],1.27 ± 0.08 µL/min
same,"AHF Rx/Baseline, Vitamin D eye",[3]; [6],1.14 ± 0.06
same,"AHF Rx/Baseline, Vitamin D/Vehicle",[3]; [6],1.10 ± 0.07
same,AHF ratio Vitamin D/Vehicle after treatment,[3]; [6],1.01 ± 0.07
same,"Aqueous humor formation (AHF), Vitamin D eye after treatment",[3]; [6],1.53 ± 0.10 µL/min
same,"AHF Rx/Baseline, Vitamin D eye",[3]; [7],1.25 ± 0.09
same,"AHF Rx/Baseline, Vitamin D/Vehicle",[3]; [7],1.22 ± 0.16
same,AHF ratio Vitamin D/Vehicle after treatment,[3]; [7],0.98 ± 0.10
same,"Aqueous humor formation (AHF), Vitamin D eye after treatment",[3]; [7],1.54 ± 0.14 µL/min
